Test system: P. falciparum 3D7 growth, pLDH absorbance
Test: P. falciparum 3D7 growth inhibition, dose response, strain 3D7 (AID 2305)

In order of rising IC50:
1. Cc1[nH]c(C)c(-c2ccc(OCc3cc(F)cc(F)c3)nc2)c(=O)c1Cl  90 nM
2. CCCCCCCn1c2c(c(=N)c3c1CCC3)CCCC2  100 nM
3. CCCCN=C(N)c1ccc(OCCCCCOc2ccc(C(N)=NCCCC)cc2)cc1  110 nM
4. N#Cc1c(-c2ccccc2)cn2c1[nH]c(=O)c1ccccc12  110 nM
5. COc1cc(Cc2cnc(N)nc2N)cc(OCCCCC2SC(=O)NC2=O)c1Br (stereo unspecified)  120 nM
6. C[C@H](NC(=O)[C@H](CCCCNC(=O)OC(C)(C)C)NC(=O)OC(C)(C)c1ccc(-c2ccccc2)cc1)C(=O)OCc1ccccc1  180 nM
7. COc1cc(NCCCNCc2cn(Cc3cc(Br)cc(Br)c3)c3ccccc23)nc2ccccc12  180 nM
8. Oc1ccccc1CNCC(O)c1cc(C(F)(F)F)cc(C(F)(F)F)c1 (stereo unspecified)  180 nM
9. O=C(c1cc(C(=O)Nc2ccc(F)cc2)c(=O)n(-c2ccc(F)cc2)c1)c1cc(Cl)ccc1O  220 nM
10. COc1ccc(NC(=O)Nc2nc(-c3ccc(Cl)c(C)c3)cs2)cc1N1CCN(C)CC1  270 nM
11. O=C(NCCN1CCCCC1)c1cccc(Nc2nccc(Nc3ccc(Oc4ccccc4)cc3)n2)c1  270 nM
12. CN1CCN(Cc2nc(-c3ccc4c(Nc5ccc(Oc6ccccc6)cc5)ccnc4c3)cs2)CC1  310 nM
13. NC(N)=Nc1nc(-c2ccc(NCc3ccc(CNc4cccc(-c5csc(N=C(N)N)n5)c4)cc3)cc2)cs1  310 nM
14. CCOC(=O)c1cnc2c(OC)cc(OC)c(Cl)c2c1Nc1cccc(C)c1C  310 nM
15. CCn1c2ccccc2c2cc(C=NNc3cc(C)nc4ccccc34)ccc21  310 nM
16. CC(C)[C@H](NC(=O)c1ccc(O)c(-c2ccc(Cl)c(Cl)c2)c1)C(=O)NCCN1CCCCC1  340 nM
17. CCCCN1CC[C@@H](CCC(O)c2cc(OCCC)nc3ccc(OC)cc23)[C@@H](CC)C1 (stereo partly specified)  360 nM
18. Fc1ccc(-c2oc(C3CCN(CCc4ccc(-c5nc(=S)o[nH]5)cc4)CC3)nc2COCC(F)(F)F)cc1  420 nM
19. CCCCCCCN1CC[C@H](NC(=O)Nc2ccnc3ccc(OC)cc23)[C@H](C(=O)OCC)C1  430 nM
20. CCn1c(Sc2ccc(C#N)c([N+](=O)[O-])c2)nnc1-c1cccc(Cl)c1  450 nM
21. CNC(=O)C1Cc2c([nH]c3c(C)cccc23)C2(N1)C(=O)Nc1ccc(OC(F)(F)F)cc12 (stereo unspecified)  460 nM
22. COc1cc2c(cc1S(=O)(=O)c1ccc(NC(=O)Nc3ccc(F)cc3)cc1)CCN(C)CC2  470 nM
23. Cc1cccc2[nH]c(-c3cccc(-c4ccc(NC(=O)c5ccncc5)cc4)c3)nc12  500 nM
24. CC(Oc1ccc(Cl)cc1)C(=O)Nc1cc(C(F)(F)F)ccc1N1CCOCC1 (stereo unspecified)  530 nM
25. CN(C)C(=NCCCCCCN=C(/N=C(/N)Nc1ccc(Cl)cc1)N(C)C)/N=C(/N)Nc1ccc(Cl)cc1  530 nM
26. CC(C)c1cc(Oc2c(I)cc(CCNCc3ccccc3)cc2I)ccc1O  540 nM
27. COc1ccc2nccc([C@@H](O)CN3CCC(NCc4ccc5c(c4)NC(=O)CS5)CC3)c2c1  570 nM
28. Cc1ccc(NC(=O)c2ccc(Cl)c(Cl)c2)cc1-c1ccc(C(=O)Nc2ccncc2)cc1  570 nM
29. NC(N)=Nc1nc(CCCCCCCCc2csc(N=C(N)N)n2)cs1  600 nM
30. c1ccc(-c2nc(Nc3nc4ccccc4[nH]3)[nH]c2-c2ccccc2)cc1  620 nM
31. COc1cc(Cc2cnc(N)nc2N)cc(OC)c1OCCCCCN1C(=O)c2ccccc2C1=O  620 nM
32. CCCc1cc(=O)[nH]c(-n2nc(C)cc2NC(=O)CC(c2ccccc2)c2ccccc2)n1  620 nM
33. O=C(/C=C/c1ccc(Cl)c(Cl)c1)NC1CCN(CCCNC(=O)c2cccc(Cl)c2)CC1  660 nM
34. O=C1CCCN1CCCNCc1ccc(-c2cccc(-c3nc4ccc(F)cc4[nH]3)c2)cc1  660 nM
35. CCOC(=O)[C@H](Cc1cccc2ccccc12)NC(=O)[C@H](CCC(=O)OC(C)(C)C)NC(=O)c1ccc(N(C)Cc2cnc3nc(N)nc(N)c3n2)cc1  660 nM
36. COc1ccc2nccc(CCC3(O)CCC(NCc4cc5c(cc4F)SCC(=O)N5)CC3)c2c1 (stereo unspecified)  670 nM
37. COc1cccc(CNCC(C)(C)c2nc(-c3ccc(Cl)c(O)c3)c(-c3ccncc3)[nH]2)c1  690 nM
38. N#Cc1ccc(-c2ccc(C(=O)NC3CCN(CCN4CCc5c(cccc5C(F)(F)F)C4)CC3)cc2)cc1  700 nM
39. Cc1cc(N2CCN(CC3CCN(C)CC3)CC2)nc(Nc2ccc(Cl)cc2)n1  700 nM
40. Cc1cccc2[nH]c(-c3cccc(-c4ccc(NC(=O)c5ccoc5)cc4)c3)nc12  700 nM
41. COc1nc2c(N3CCN(CCNCc4ccc5c(n4)NC(=O)CS5)CC3)ccnc2cc1F  710 nM
42. CC(C)c1cccc(C(NC(=O)[C@H]2Cc3ccccc3CN2C(=O)c2cccc(N3CCOCC3)c2)C2CCCC2)c1 (stereo partly specified)  720 nM
43. Cc1cccc(C)c1OC(=O)[C@@H](C)[C@@H](O)C1(Sc2ccccc2)CCN(C)CC1  730 nM
44. COCCNCc1cccc(C#Cc2cc3ncnc(Nc4ccc(OCc5cccc(F)c5)c(Cl)c4)c3s2)n1  740 nM
45. OCc1c(Cl)cc(Cl)cc1CNCCCNc1nc2ccccc2[nH]1  740 nM
46. O=c1[nH]ccc2nc(N[C@@H]3CCCNC3)nc(Nc3ccc(S(=O)(=O)N4CCOCC4)cc3)c12  740 nM
47. Nc1ccc2nc(C=Cc3ccccc3)[nH]c2c1  750 nM
48. CCOc1cccc(C2c3c(oc4ccccc4c3=O)C(=O)N2CCN(CC)CC)c1 (stereo unspecified)  750 nM
49. CC(C)[C@H](NCC(=O)c1ccccc1)C(=O)O  780 nM
50. O=C(Nc1ccc(-c2nc3ccc(NC(=O)c4ccc(Br)cc4)cc3[nH]2)cc1)c1ccc(Br)cc1  790 nM
51. Cc1[nH]c(C)c(-c2ccc(Oc3ccc(Cl)cc3)cc2)c(=O)c1Cl  790 nM
52. Cn1cccc1C(=O)C(=O)Nc1cccc(-c2ccc(-c3nc4ccc(C(F)(F)F)cc4[nH]3)cc2)c1  790 nM
53. COc1ccc(S(=O)(=O)N2CCOCC2)cc1NC(=O)c1cc2ccccc2o1  790 nM
54. O=C(Nc1ccc(Oc2ccccc2)cc1)N1CCC(CCN2CCC(c3c[nH]c4ccccc34)CC2)CC1  800 nM
55. C=CCn1c(Sc2ccc(C#N)c([N+](=O)[O-])c2)nnc1-c1ccc(OC)cc1  800 nM
56. COc1ccc(-c2cnc3ccc(NCc4ccc(S(N)(=O)=O)cc4)nn23)cc1  800 nM
57. CNCCc1c(O)ccc2ccccc12  800 nM
58. CS(=O)(=O)c1ccccc1CNC(=O)c1cccc(-c2ccc(-c3nc4ccc(C(F)(F)F)cc4[nH]3)cc2)c1  810 nM
59. CC(C)c1ccc(C=CC(=O)NC2CCC(CN3CCC(c4c[nH]c5ccccc45)CC3)CC2)cc1 (stereo unspecified)  810 nM
60. O=C1OC(c2ccccc2)(c2ccccc2)CN1CC1CCN(Cc2ccc(O)c(Cl)c2)CC1  820 nM
61. COc1ccc(C2CC(=O)C3=C(C2)NC(C)=C(C(=O)OC(C)C)C3c2c(F)cccc2Cl)cc1OC (stereo unspecified)  820 nM
62. CCCCCCc1cc2cc(-c3nc(-c4ccc(OC)cc4)cs3)c(=O)oc2cc1O  820 nM
63. O=C(Cc1ccc(NC(=O)c2ccc(O)c(-c3ccc(Cl)c(Cl)c3)c2)cc1)NCCN1CCCCC1  840 nM
64. CN(C)c1ccc(-c2csc(C(=O)NCC3CCN(Cc4cccc(C(F)(F)F)c4)C3)c2)cc1 (stereo unspecified)  840 nM
65. CCCCCCCCS(=O)(=O)NCCCC1CCN(CCCCCNC(=O)C=Cc2ccc(Cl)c(Cl)c2)CC1  860 nM
66. Oc1ccc(CCNc2nc(NCCCOc3ccccc3-c3cccc(C(F)(F)F)c3)nc(N3CCNCC3)n2)cc1  880 nM
67. Cc1cc(NCC2CCN(CC3CCCCC3)C2)nc(Nc2ccc(Br)cc2)n1 (stereo unspecified)  880 nM
68. Cc1sc(C)c(CNCCCNc2cc(=O)c3ccccc3[nH]2)c1Br  880 nM
69. O=C(/C=C/c1cccs1)NCC(NCCCNc1cc(=O)c2ccccc2[nH]1)c1cc(Br)cc(Br)c1 (stereo unspecified)  890 nM
70. COc1ccc(-n2nc(C)c3c2NC(=O)CC3c2ccccc2OCc2ccccc2F)cc1 (stereo unspecified)  900 nM
71. COCCNCc1cccc(-c2ccccc2CN(C(=O)Nc2ccccc2)C2CCN(Cc3ccccc3)CC2)c1  910 nM
72. O=C(NC1CC1)c1ccc2cc(C(=O)N3Cc4ccccc4C(c4ccccc4)C3)ccc2c1 (stereo unspecified)  910 nM
73. Cc1ccc2sc(N3CCN(C(=O)c4ccc([N+](=O)[O-])o4)CC3)nc2c1C  940 nM
74. N#Cc1ccc(CNCCCCCCCNCc2ccc(-c3ccccc3)cc2)cc1  970 nM
75. CC(=O)c1ccc2c(c1)CCN(CCC1CCC(NC(=O)c3cc4ccccc4[nH]3)CC1)CC2 (stereo unspecified)  980 nM
76. O=C(/C=C/c1ccc(Cl)c(Cl)c1)NCCCCCN1CCC(NC(=O)Nc2cc(Cl)nc(Cl)c2)CC1  980 nM
77. Cc1[nH]c2ccc(O)cc2c1C1CCN(CC2CCN(C(=O)/C=C/c3ccc(Cl)c(Cl)c3)CC2)CC1  1000 nM
78. Cn1nc(C(F)(F)F)cc1-c1ccc(C(=O)Nc2ccc3c(c2)CNCC3(C)C)s1  1010 nM
79. COc1ccc2c(c1C1CCN(CCCCNC(=O)c3ccc(-c4ccc(Cl)cn4)cc3)CC1)CCCC2  1020 nM
80. O=C(NCC1CC1)C1CCN(C(c2ccccc2)c2nc3ccccc3s2)CC1 (stereo unspecified)  1020 nM
81. CC(C)(C)c1cc(NC(=O)c2ccc(Cl)c([N+](=O)[O-])c2)cc(C(C)(C)C)c1  1030 nM
82. C[C@@H](N)C#Cc1cc2c(Nc3ccc(OCc4cccc(F)c4)c(Cl)c3)ncnc2s1  1060 nM
83. Clc1ccc(-c2[nH]c3ccccc3c2CN2CCC(N3CCCCC3)CC2)cc1  1060 nM
84. COc1ccc(-n2cc(CNCCCn3ccnc3)c(-c3cccc(F)c3)n2)cc1  1060 nM
85. Cc1cc(C)c(C(=O)Nc2n[nH]c3nnc(-c4cccc(F)c4F)cc23)c(C)c1  1070 nM
86. CC(C)Oc1ccccc1-c1csc(C(=O)NCC2CCN(Cc3ccc(C(C)(C)C)cc3)C2)c1 (stereo unspecified)  1070 nM
87. Cn1cnc(CCNC(=O)c2ccc(-c3cccc(-c4nc5ccccc5[nH]4)c3)cc2)c1  1100 nM
88. COc1ccc(Cl)cc1N1CCN(CCCNC(=O)c2ccc(-c3nc4cc(Cl)c(F)cc4[nH]3)c(F)c2)CC1  1110 nM
89. CCCCCCC(N)c1ccc(OCCCOc2ccc(C(N)CCCCCC)cc2)cc1 (stereo unspecified)  1140 nM
90. Cc1nc(NCc2ccccc2)cc(NCC(O)c2ccc(O)cc2)n1 (stereo unspecified)  1230 nM
91. O=C(Nc1cccc(CN2CCCN(Cc3cccc(Cl)c3)CC2)c1)c1ccc(-c2ccccc2)cc1  1230 nM
92. COc1ccccc1CN1CCC(CNC(=O)c2cc(-c3cccc(C(F)(F)F)c3)cs2)C1 (stereo unspecified)  1310 nM
93. COc1ccc(NC(=O)C2c3ccccc3C(=O)N(C3CCCC3)C2c2cccs2)c(OC)c1 (stereo unspecified)  1480 nM
94. CN(C)c1ccc(-c2csc(C(=O)NCC3CCN(CCC(C)(C)C)C3)c2)cc1 (stereo unspecified)  1500 nM
95. Cc1ccc(NC(=O)c2ccc(N3CCN(c4ccncc4)CC3)cn2)cc1F  1570 nM
96. Cc1cc(N[C@@H](Cc2ccccc2)C(=O)Nc2ccccc2)nc(NCCN2CCCC2)n1  1810 nM

Reference: PubChem BioAssay AID2305 (GlaxoSmithKline (GSK), 2010)
